Results reported in patent publication EP0468497B1, “Peptide-antagonists of bombesin/GRP” (MERRELL PHARMACEUTICALS INC., priority 1990, dated 1992).
pKd: −log10 of the molar value. Non-standard residues stand in square brackets, D forms with d. Residues, ends and D or L forms follow the SMILES beside them. *: point of attachment. Palmitoyl = CCCCCCCCCCCCCCCC(=O)*; Lauroyl = CCCCCCCCCCCC(=O)*; Octanoyl = CCCCCCCC(=O)*

molecular target: T1, bombesin receptor (Mus musculus, UniProt P21729); assay: Affinity for the bombesin receptor by competition at the receptor for iodinated GRP (125I-GRP), pancreas membranes; design: species or system mice; conditions: competition with 125I-GRP, 90 minutes at room temperature, read-out: Bombesin Receptor Binding (Example 5)
T1 construct: The pancreata from one or more mice were pooled, minced, and homogenized; from tissue; host or cells: mouse pancreas
T1 sequence (P21729 whole entry): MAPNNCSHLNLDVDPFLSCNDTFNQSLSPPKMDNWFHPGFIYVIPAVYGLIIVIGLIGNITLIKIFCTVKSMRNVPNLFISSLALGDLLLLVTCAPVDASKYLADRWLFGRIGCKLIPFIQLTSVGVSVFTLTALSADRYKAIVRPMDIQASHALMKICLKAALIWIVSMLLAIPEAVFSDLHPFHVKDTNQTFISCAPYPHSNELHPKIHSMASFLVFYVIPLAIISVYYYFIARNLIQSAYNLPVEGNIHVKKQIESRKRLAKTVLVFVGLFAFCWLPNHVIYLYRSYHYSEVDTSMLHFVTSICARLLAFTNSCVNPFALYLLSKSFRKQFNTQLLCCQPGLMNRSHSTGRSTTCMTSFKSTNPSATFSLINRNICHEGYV
Procedure: The pancreata from one or more mice were pooled, minced, and homogenized in 50 mM HEPES (pH 7.4) containing 120 mM NaCl and 5 mM KCl at 4°C and centrifuged at 37,500 X g for 15 minutes. The pellet was resuspended in 50 mM HEPES (pH 7.4) containing 10 mM EDTA and 300 mM KCl and incubated for 30 minutes at 4°C. The suspension was centrifuged as above and the pellet was washed two times in 50 mM HEPES (pH 7.4) containing protease inhibitors (10 µM phenylmethylsulfonyl fluoride, 1 µM thiorphan, 40 µg/ml bacitracin, 10mM iodoacetic acid and 4 µg/ml leupeptin), and again centrifuged. The tissue was then resuspended in incubation buffer (1ml per 4 mg pancreas) and incubated for 15 minutes at room temperature, then 250 µl was added to each assay tube to commence the assay. The assay tubes contained incubation buffer consisting of 50 mM HEPES (pH 7.4), 0.5% BSA, protease inhibitors, 2 mM MnCl2, 1 µM somatostatin, and concentrations of ^125I-GRP and peptides as needed in a final volume of 500 µl. The assay was allowed to proceed to equilibrium for 90 minutes at room temperature. After this time, the contents of each tube was rapidly filtered over Whatman GF/B filters presoaked in 0.1% polyethyleneimine and the filters were rapidly washed three times with ice-cold 50 mM HEPES (pH 7.4). Filter-bound radioactivity was quantitated in a gamma counter. Competition of iodinated GRP binding by test compounds or standards was expressed as a percentage of ^125I-GRP binding in the absence of peptide. Affinity and maximal binding were calculated with Ligand (Biosoft, Cambridge, UK).

| Compound | pKd |
| --- | --- |
| CCCCCCCC(=O)N[C@@H](CCC(N)=O)C(=O)N[C@@H](Cc1c[nH]c2ccccc12)C(=O)N[C@@H](C)C(=O)N[C@H](C(=O)N[C@H](C)C(=O)N[C@@H](Cc1c[nH]cn1)C(=O)N[C@@H](CC(C)C)C(N)=O)C(C)C [Example 1, N-(n-Octanoyl)-Gln-Trp-Ala-Val-ala-His-Leu-NH2] (Octanoyl-QWAV[dA]HL-NH2) | ≥ 7.30 |
| CCCCCCCCCCCC(=O)N[C@@H](CCC(N)=O)C(=O)N[C@@H](Cc1c[nH]c2ccccc12)C(=O)N[C@@H](C)C(=O)N[C@H](C(=O)N[C@H](C)C(=O)N[C@@H](Cc1c[nH]cn1)C(=O)N[C@@H](CC(C)C)C(N)=O)C(C)C [Example 2, N-(Lauroyl)-Gln-Trp-Ala-Val-ala-His-Leu-NH2] (Lauroyl-QWAV[dA]HL-NH2) | ≥ 6.30 |
| CCCCCCCCCCCCCCCC(=O)N[C@@H](CCC(N)=O)C(=O)N[C@@H](Cc1c[nH]c2ccccc12)C(=O)N[C@@H](C)C(=O)N[C@H](C(=O)N[C@H](C)C(=O)N[C@@H](Cc1c[nH]cn1)C(=O)N[C@@H](CC(C)C)C(N)=O)C(C)C [Example 3, N-(Palmitoyl)-Gln-Trp-Ala-Val-ala-His-Leu-NH2] (Palmitoyl-QWAV[dA]HL-NH2) | ≥ 6.30 |
| CCCCCCCC(=O)N[C@@H](CCC(N)=O)C(=O)N[C@@H](Cc1c[nH]c2ccccc12)C(=O)N[C@@H](C)C(=O)N[C@H](C(=O)N[C@H](C)C(=O)N[C@@H](Cc1c[nH]cn1)C(N)=O)C(C)C [Example 4, N-(n-Octanoyl)-Gln-Trp-Ala-Val-ala-His-NH2] (Octanoyl-QWAV[dA]H-NH2) | ≥ 7.30 |
